pIC50: −log10 of the molar value. Where two headings read alike, the source gives them in different places.
Tests used:
[1] = test system: A549: the human lung adenocarcinoma cell strain; test: cells; assay type: cell-based
Protocol: (§1) Experiment 1. Cytotoxicity Screening Assay at Cell Level of Compounds of this Invention
(§2) Tumor cells at log phase were incubated on 96-well plates at a density of 1˜1.2×10^4 cells/ml, 100 μl/well. 24 h later, treatment cells were exposed to the tested agents at different concentrations. Each tested agents had 4˜5 doses, and each dose had at least 3 parallel wells. Control cells were exposed to solvents in the same volume with treat agents. Cells were cultured at 37° C. in a cell incubator with 5% CO2 and 95% air atmosphere. After 4 days of culture, the incubation medium was removed, then 200 μl 0.2% MTT (prepared by RPMI 1640) was added to each well and the plates were incubated at 37° C. for 4 hours. The supernatant was discarded and dissolved the resulting formazen product with 200 μl DMSO in each well. The absorbance at a reference wavelength of 450 nm and a test wavelength of 570 nm was read on a microplate reader after tenderly shaking. Calculated drug inhibitory rate using the following equation and IC50, taking solvent exposure tumor cells as control cells.

[2] = test system: KB: the human oral epithelium cancer cell strain; test: cells; assay type: cell-based
Protocol: as §1, §2

[3] = test system: A549/Taxol: the taxol-resistant substrain of A549; test: cells; assay type: cell-based, human
Protocol: as §1, §2

[4] = test system: KB/V: the vincristine-resistant substrain of KB; test: cells; assay type: cell-based, human; settings: Table 1; MTT, 4 days of culture; read-out: IC50(M) KB/V
Protocol: as §1, §2

HCT-8 = test: MTT cytotoxicity assay, HCT-8 cells; assay type: cell-based; settings: Table 2, read-out: IC50 (mol/L) HCT-8
Protocol: as §1, §2

Bel-7402 = test: MTT cytotoxicity assay, Bel-7402 cells; assay type: cell-based; settings: Table 2, read-out: IC50 (mol/L) Bel-7402
Protocol: as §1, §2

A2780 = test: MTT cytotoxicity assay, A2780 cells; assay type: cell-based, human; settings: Table 2, read-out: IC50 (mol/L) A2780
Protocol: as §1, §2

[5] = test system: human mammary adenocarcinoma cell strain MCF-7; test: MTT cytotoxicity assay, MCF-7 cells; assay type: cell-based; settings: Table 2, read-out: IC50 (mol/L) MCF-7
Protocol: as §1, §2

[6] = test system: MCF-7/D: adriamycin-resistant subline of the human mammary adenocarcinoma cell strain MCF-7; test: MTT cytotoxicity assay, MCF-7/D cells; assay type: cell-based; settings: Table 2, read-out: IC50 (mol/L) MCF-7/D
Protocol: as §1, §2

BGC-823 = test: MTT cytotoxicity assay, BGC-823 cells; assay type: cell-based, human; settings: Table 2, read-out: IC50 (mol/L) BGC-823
Protocol: as §1, §2

BGC-803 = test: MTT cytotoxicity assay, BGC-803 cells; assay type: cell-based; settings: Table 2, read-out: IC50 (mol/L) BGC-803
Protocol: as §1, §2

[7] = test system: human ovarian cancer A2780-nude mice-xenograft tumor; test: Growth inhibition on A2780-nude mice-xenograft tumor; settings: for Tv x ± SD dn: dn: 30 days after the first administration
Text: (§3) Genera: BALB/c (nu-nu) nude mice
(§4) After one-week accommodation, animals were given subcutaneous implantation of the human lung adenocarcinoma A549 or the human ovarian cancer A2780 or the human gastric carcinoma BGC-823 cells. Animals were grouped randomly (d0) when the tumors reached 100-300 mm^3. […] Animal weights and tumor measurements were taken every […] and recorded. At the end of the study (d30 or d35), nude mice were euthanized and weighed. After the animals were sacrificed, tumor tissue was cut and weighed. Tumor volume was determined using the following equation: […]

[8] = test system: human gastric carcinoma BGC-823 nude mice-xenograft tumor; test: Growth inhibition on BGC-823-nude mice-xenograft tumor; settings: for Tv x ± SD dn: dn 30 days after the first administration
Text: as §3, §4

[9] = test system: human lung adenocarcinoma A549-nude mice-xenograft tumor; test: Growth inhibition on A549-nude mice-xenograft tumor
Text: as §3, §4

Lewis lung cancer = test: Inhibitory activity on mice Lewis lung cancer

With `CC=C(C)C(=O)NC(c1ccccc1)C(O)C(=O)OC1CC2(O)C(OC(=O)c3cccc(N=[N+]=[N-])c3)C3C4(OC(C)=O)COC4CC(OC(=O)CC)C3(C)C(=O)C(O)C(=C1C)C2(C)C` (stereo not drawn) [Example 8, 2-(3-azidobenzoyl)-7-propionyl-10-deacetyl-cephalomannine] the IC50 ([1]; Table 1, MTT, 4 days of culture, read-out: IC50(M) A549) was 9.36e-09 M, the pIC50 ([1]; Table 2, MTT assay, read-out: IC50 (mol/L) A549) was 9.03 and the IC50 ([2]; Table 1, MTT, 4 days of culture, read-out: IC50(M) KB) was 2.39e-09 M. For the same compound, the pIC50 ([2]; Table 2, MTT assay, read-out: IC50 (mol/L) KB) was 9.31, the pIC50 ([3]; Table 2, MTT assay, read-out: IC50 (mol/L) A549/T) was 8.85 and the IC50 ([3]; read-out: IC50(M) A549/Taxol, Table 1, MTT, 4 days of culture) was > 1000 nM. For the same compound, the IC50 [4] was 2.73e-07 M, the pIC50 (HCT-8) was 9.49 and the pIC50 (Bel-7402) was 8.06. The pIC50 (A2780) was 8.44, the pIC50 [5] was 9.17 and the pIC50 [6] was 6.57. It also gave a pIC50 (BGC-823) of 8.89, a pIC50 (BGC-803) of 8.62 and an RTV ([7]; 7.5 × 4 mg/kg i.p.) of 7.8. For the same compound, the “T/C (%)” value ([7]; 7.5 × 4 mg/kg i.p.) was 80.3%, the “Tv x ± SD d0” value ([7]; 7.5 × 4 mg/kg i.p., d0) was 127.6 ± 65.9 and the “Tv x ± SD dn” value ([7]; 7.5 × 4 mg/kg i.p.) was 989.3 ± 658.9. The “Body weight (g) end” value ([7]; 7.5 × 4 mg/kg i.p.) was 25.5 g, the “Body weight (g) initial” value ([7]; 7.5 × 4 mg/kg i.p.) was 22.4 g and the RTV ([7]; 15 × 4 mg/kg i.p.) was 6.6. For the same compound, the “T/C (%)” value ([7]; 15 × 4 mg/kg i.p.) was 68.1%, the “Tv x ± SD d0” value ([7]; 15 × 4 mg/kg i.p., d0) was 130.2 ± 36.0 and the “Tv x ± SD dn” value ([7]; 15 × 4 mg/kg i.p.) was 855.6 ± 500.3. For the same compound, the “Body weight (g) end” value ([7]; 15 × 4 mg/kg i.p.) was 25.2 g, the “Body weight (g) initial” value ([7]; 15 × 4 mg/kg i.p.) was 22.0 g and the RTV ([7]; 30 × 4 mg/kg i.p.) was 3.4. The “T/C (%)” value ([7]; 30 × 4 mg/kg i.p.) was 34.9%, the “Tv x ± SD d0” value ([7]; 30 × 4 mg/kg i.p., d0 (first administration)) was 157.1 ± 56.2 and the “Tv x ± SD dn” value ([7]; 30 × 4 mg/kg i.p.) was 529.6 ± 454.8. The “Body weight (g) end” value ([7]; 30 × 4 mg/kg i.p.) was 22.3 g, the “Body weight (g) initial” value ([7]; 30 × 4 mg/kg i.p.) was 22.0 g and the “inhibition of tumor growth, conclusion in words” value (shortened to “inhibition of tumor growth”) ([7]; A2780 nude mice-xenograft tumor, comparison with taxol) was “stronger effect”. The RTV ([8]; 7.5 × 4 mg/kg i.p.) was 17.45, the “T/C (%)” value ([8]; 7.5 × 4 mg/kg i.p.) was 63.84% and the “Tv x ± SD d0” value ([8]; 7.5 × 4 mg/kg i.p.) was 101.1 ± 17.4. The “Tv x ± SD dn” value ([8]; 7.5 × 4 mg/kg i.p.) was 2057.5 ± 1756.4, the “Body weight (g) end” value ([8]; 7.5 × 4 mg/kg i.p.) was 26.1 g and the “Body weight (g) initial” value ([8]; 7.5 × 4 mg/kg i.p.) was 24.7 g. The RTV ([8]; 15 × 4 mg/kg i.p.) was 9.27, the “T/C (%)” value ([8]; 15 × 4 mg/kg i.p.) was 33.90% and the “Tv x ± SD d0” value ([8]; 15 × 4 mg/kg i.p.) was 104.4 ± 16. The “Tv x ± SD dn” value ([8]; 15 × 4 mg/kg i.p.) was 1156.6 ± 403.9, the “Body weight (g) end” value ([8]; 15 × 4 mg/kg i.p.) was 23.8 g and the “Body weight (g) initial” value ([8]; 15 × 4 mg/kg i.p.) was 25.2 g. For the same compound, the RTV ([8]; 30 × 4 mg/kg i.p.) was 0.47, the “T/C (%)” value ([8]; 30 × 4 mg/kg i.p.) was 4.57% and the “Tv x ± SD d0” value ([8]; 30 × 4 mg/kg i.p.) was 99.7 ± 34.3. The “Tv x ± SD dn” value ([8]; 30 × 4 mg/kg i.p.) was 177.1 ± 199.0, the “Body weight (g) end” value ([8]; 30 × 4 mg/kg i.p.) was 23.9 g and the “Body weight (g) initial” value ([8]; 30 × 4 mg/kg i.p.) was 25.0 g. For the same compound, the “inhibition of tumor growth” value ([8]; BGC-823 nude mice-xenograft tumor, comparison with taxol) was “equal to taxol”, the RTV ([9]; 7.5 × 3 mg/kg) was 7.2 and the “T/C (%)” value ([9]; 7.5 × 3 mg/kg) was 60.7%. The “Body weight (g) end” value ([9]; 7.5 × 3 mg/kg) was 21.8 g, the “Tv x ± SD end” value ([9]; 7.5 × 3 mg/kg) was 3090 ± 900 and the “Body weight (g) initial” value ([9]; 7.5 × 3 mg/kg) was 21.6 g. For the same compound, the “Tv x ± SD initial” value ([9]; 7.5 × 3 mg/kg) was 431 ± 94, the RTV ([9]; 15 × 3 mg/kg) was 6.7 and the “T/C (%)” value ([9]; 15 × 3 mg/kg) was 56.7%. The “Body weight (g) end” value ([9]; 15 × 3 mg/kg) was 25.1 g, the “Tv x ± SD end” value ([9]; 15 × 3 mg/kg) was 2897 ± 950 and the “Body weight (g) initial” value ([9]; 15 × 3 mg/kg) was 22.4 g. The “Tv x ± SD initial” value ([9]; 15 × 3 mg/kg) was 432 ± 115, the RTV ([9]; 30 × 3 mg/kg) was 4.0 and the “T/C (%)” value ([9]; 30 × 3 mg/kg) was 33.56%. For the same compound, the “Body weight (g) end” value ([9]; 30 × 3 mg/kg) was 23.2 g, the “Tv x ± SD end” value ([9]; 30 × 3 mg/kg) was 1646 ± 450 and the “Body weight (g) initial” value ([9]; 30 × 3 mg/kg) was 21.8 g. The “Tv x ± SD initial” value ([9]; 30 × 3 mg/kg) was 415 ± 85, the “inhibition of tumor growth” value ([9]; A549 nude mice-xenograft tumor, comparison with taxol) was “stronger effect” and the “Inhibition (%)” value (Lewis lung cancer; 2.5 × 8 mg/kg) was 27.77%. For the same compound, the “Tumor weight (g) Average” value (Lewis lung cancer; 2.5 × 8 mg/kg) was 2.07 g, the “Body weight (g) end” value (Lewis lung cancer; 2.5 × 8 mg/kg) was 22.0 g and the “Body weight (g) initial” value (Lewis lung cancer; 2.5 × 8 mg/kg) was 20.0 g. The “Inhibition (%)” value (Lewis lung cancer; 5 × 8 mg/kg) was 32.46%, the “Tumor weight (g) Average” value (Lewis lung cancer; 5 × 8 mg/kg) was 1.96 g and the “Body weight (g) end” value (Lewis lung cancer; 5 × 8 mg/kg) was 20.4 g. The “Body weight (g) initial” value (Lewis lung cancer; 5 × 8 mg/kg) was 20.0 g, the “Inhibition (%)” value (Lewis lung cancer; 10 × 8 mg/kg) was 76.08% and the “Tumor weight (g) Average” value (Lewis lung cancer; 10 × 8 mg/kg) was 0.69 g. For the same compound, the “Body weight (g) end” value (Lewis lung cancer; 10 × 8 mg/kg) was 16.8 g, the “Body weight (g) initial” value (Lewis lung cancer; 10 × 8 mg/kg) was 19.5 g and the “inhibition of tumor growth” value (Lewis lung cancer; Lewis lung cancer, comparison with taxol) was “stronger effect”.

Reference: patent US20110039921A1 (priority 2007, published 2011)
